Laboratory results reported in patent US10648035B2, “Methods and compositions for diagnosing and treating gastric cancer” (THE JOHNS HOPKINS UNIVERSITY, priority 2012, dated 2020).

Legend:
[1] = system: claudin-11 mRNA expression in AGS gastric cancer cells; assay: Claudin-11 mRNA re-expression in AGS cells after demethylating treatment (qRT-PCR); format: cell-based; set-up: claudin-11 mRNA expression, ratio of treated vs. untreated cells: dose or concentration left out as unconfirmed
Description: FIG. 23. Claudin-11 mRNA re-expression in AGS gastric cancer cells after treatment with 5-Aza-dC. AGS is a gastric cancer cell line manifesting hypermethylation of the claudin-11 promoter in conjunction with absent claudin-11 mRNA expression (FIG. 17). Total RNAs from AGS cells before and after 5-aza-2-deoxycytidine treatment were subjected to quantitative real-time RT-PCR analysis. The Y-axis represents the expression ratio of 5-aza-dC-treated vs. untreated cells. […] This restoration of claudin-11 expression after 5-Aza-dC treatment supports our hypothesis that claudin-11 is silenced by promoter hypermethylation in GC cells.
[…] Total RNAs extracted before vs. after treatment were subjected to qRT-PCR for CLDN11.

Barx1 expression in AGS = assay: Barx1 mRNA re-expression in AGS after 5-Aza-dC treatment; format: cell-based; settings: AGS cells after treatment

SMILES: Nc1ncn([C@H]2C[C@H](O)[C@@H](CO)O2)c(=O)n1 [5-Aza-dC, 5-aza-2-deoxycytidine]
- CLDN11 mRNA re-expression ([1]; 1 μM, varying time intervals): CLDN11 mRNA became more re-expressed
- claudin-11 mRNA expression, ratio of treated vs. untreated cells ([1]; first 72 hrs. of treatment): time-dependent increase in claudin-11 mRNA expression
- Barx1 mRNA re-expression (Barx1 expression in AGS): restoration of Barx1 expression
- Barx1 mRNA re-expression (Barx1 expression in AGS; listed as 5-AzaC): BARX mRNA re-expression
